Assay results as given in PubChem BioAssay (NCI).
Where “and” joins values, the source holds several entries; their conditions need not be identical. Identical values can stand only once.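 Exposure lasted 48 hours, with cells grown in 96-well plates and compounds tested at five concentrations. GI50 = concentration required for 50% inhibition of growth. TGI is the concentration that stops growth completely.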

Legend:
Assay in all cases: inhibition of tumour cell growth, NCI panel, 48 h
SNB-78 CNS = system: SNB-78 CNS
RXF-631 renal = system: RXF-631 renal
XF 498 CNS = system: XF 498 CNS
M19-MEL melanoma = system: M19-MEL melanoma
DMS 273 small cell lung = system: DMS 273 small cell lung
DLD-1 colon = system: DLD-1 colon
DMS 114 small cell lung = system: DMS 114 small cell lung
KM20L2 colon = system: KM20L2 colon
MDA-N = system: MDA-N

Row | Compound | TGI (SNB-78 CNS) [µM] | TGI (RXF-631 renal) [µM] | TGI (XF 498 CNS) [µM] | TGI (M19-MEL melanoma) [µM] | TGI (DMS 273 small cell lung) [µM] | TGI (DLD-1 colon) [µM] | TGI (DMS 114 small cell lung) [µM] | TGI (KM20L2 colon) [µM] | TGI (MDA-N) [µM] | also measured
1 | O=C(O)c1ccccc1NC(=O)C1CCCCC1 | > 100 | > 100 | > 100 | > 100 | > 100 | > 100 | > 100 | > 100 |  | 
2 | CC(=O)Oc1ccc(C(c2ccc(OC(C)=O)cc2)c2ccccn2)cc1 |  | > 100 | > 86.1 | > 100 | > 100 | > 100 | > 68.4 | > 100 | > 100 | 
3 | c1ccc2c(c1)C1=NCCN1c1ccccc1-2 | 18 | 9.69 |  | 11 | 4.88 | 9.02 |  | 14.2 |  | 
4 | O=C(CC1C(=O)Nc2ccccc2S1=O)Nc1ccc(Cl)cc1 (stereo not given) | > 100 |  |  |  | > 100 | > 100 |  | > 100 |  | 
5 | [Cl][Cd][Cl] | 56.9 | > 88.9 | 43.1 | 24.1 | 31.2 |  | > 55 |  | 21.4 | GI50 (SNB-78 CNS): 21.3 µM; GI50 (RXF-631 renal): 38.8 µM; GI50 (XF 498 CNS): 23.4 µM; GI50 (M19-MEL melanoma): 11.2 µM; GI50 (MDA-N): 4.61 µM and 8.24 µM; GI50 (DMS 273 small cell lung): 15.1 µM; GI50 (DLD-1 colon): > 58.6 µM; GI50 (DMS 114 small cell lung): 25.8 µM
6 | COC1OC2COC(c3ccccc3)OC2C(O)C1Br (stereo not given) | > 100 |  | > 100 | > 100 | > 100 | > 100 |  |  |  | 
7 | CC1=C(/C=C/C(C)=C/C=C/C(C)=C/CO)C(C)(C)CCC1 |  |  |  |  |  |  |  |  | > 100 | 
8 | O=C1C=CC(CC(=O)c2ccc3ccccc3c2)O1 (stereo not given) | > 100 |  | > 100 | > 100 | 45.3 | 80.6 |  | 34.7 |  | 
9 | O=C1OC(c2ccccc2)=N/C1=C\c1cccc(F)c1 |  |  |  |  |  |  |  |  | > 100 | 
10 | CC12Oc3ccc4ccccc4c3CC1Cc1c(ccc3ccccc13)O2 (stereo not given) |  |  |  | > 100 | 74.9 | > 100 | > 100 | > 100 |  | 
11 | O=[N+]([O-])c1ccc(S(=O)(=O)Cc2ccccc2)c2nonc12 |  |  |  |  |  |  |  |  | 40.9 | 
12 | C[C@H]1C(=O)CC[C@]2(C)CCC(C(C)(C)O)CC12O (stereo not given in full) | > 100 | > 100 |  |  | > 100 | > 100 | > 100 | > 100 |  | 
13 | CSc1cccc(NC(=O)OC2CCCCCCCCCCC2)c1 |  |  |  |  |  |  |  |  | 60.8 | 
14 | O=[N+]([O-])c1ccc(Cl)cc1C1SCc2nc3ccccc3n21 (stereo not given) | > 100 | > 100 | > 100 | > 100 | > 100 | > 100 | > 100 | > 100 |  | 
15 | O=S(=O)(C/C(=N\O)c1ccccc1)c1ccccc1 | > 100 | > 100 | > 100 | > 100 | > 100 | > 100 |  | > 100 |  | 
16 | Cc1cc2c(C)n(Cc3ccc(Cl)cc3Cl)nc2c(C(=O)O)c1C | > 100 | > 100 | > 100 | > 100 | > 100 | > 100 |  | > 100 |  | 
17 | O=C1c2nc3n(c2C(=O)c2c1nc1n2CCC1)CCC3 | 31.1 |  | 19.6 | 0.387 | 12.7 | 18.2 | 5.29 | 11.4 | 3.47 | 
18 | Cc1ccccc1-n1c(C)nc(-c2ccccc2)cc1=O | > 100 | > 100 |  | > 100 | > 100 | > 100 | > 100 | > 100 |  | 
19 | Nn1c(N=Nc2c(O)[nH]c3c(Cl)cc(Cl)cc23)n[nH]c1=S | > 100 |  |  | > 100 |  | > 100 | > 100 | > 100 |  | 
20 | O=C(Nc1ccc(Cl)c(Cl)c1)OCCN1c2ccccc2Sc2ccccc21 |  |  |  |  |  |  |  |  | > 10 | 
21 | NCCSCCc1ccccc1 |  |  |  |  |  |  |  |  | > 100 | 
22 | COC1=C2CC(C)CC(OC)C(O)C(C)/C=C(\C)C(OC(N)=O)C(OC)/C=C\C=C(/C)C(=O)NC(=C(/C=N/N3CCCCC3)C1=O)C2=O (stereo not given) | 48.3 | 35.1 | 19.9 | 19 | 27.6 | 23.4 |  | 10.1 |  | 

Row | Compound | TGI (SNB-78 CNS) [µM] | TGI (RXF-631 renal) [µM] | TGI (XF 498 CNS) [µM] | TGI (M19-MEL melanoma) [µM] | TGI (DMS 273 small cell lung) [µM] | TGI (DLD-1 colon) [µM] | TGI (DMS 114 small cell lung) [µM] | TGI (KM20L2 colon) [µM] | TGI (MDA-N) [µM] | also measured
23 | CC1(C)OC(=O)C=C([O-])O1.CC1(C)OC(=O)C=C([O-])O1.CC[O-].CC[O-].[Ti+4] | > 100 |  |  | > 100 |  | > 100 | > 100 | > 100 |  | GI50 (SNB-78 CNS): > 100 µM; GI50 (M19-MEL melanoma): > 100 µM; GI50 (DLD-1 colon): > 100 µM; GI50 (DMS 114 small cell lung): > 100 µM; GI50 (KM20L2 colon): > 100 µM
24 | COc1ccc2nc(NC(=O)C(=O)C(C#N)c3ccc(Cl)c(Cl)c3)sc2c1 (stereo not given) | > 100 | > 100 | > 100 | > 100 | > 100 | > 100 | > 100 | > 100 |  | 
25 | CN(C)C(=S)/N=c1\ss/c(=N\S(=O)(=O)c2ccccc2)n1N(C)C | > 100 | > 100 |  | > 100 | > 100 | > 100 | 85.9 | > 100 |  | 
26 | CCc1nc(N)nc(N)c1-c1ccc(Cl)c(N=CN(C)C)c1 |  |  |  |  |  |  |  |  | > 100 | 
27 | O=C(O)CCSC(=O)Nc1ccc(N=Nc2ccccc2)cc1 | > 100 | > 100 | > 100 |  | > 100 | > 100 | > 100 | > 100 |  | 
28 | COc1ccc2c(c1OC)C(=O)c1cnccc1C2=O | > 100 | > 100 | > 100 | > 100 | > 100 | > 100 | > 100 | > 100 |  | 
29 | O=C(NS(=O)(=O)c1ccccc1)C(Cc1ccccc1)C(Cc1ccccc1)C(=O)NS(=O)(=O)c1ccccc1 (stereo not given) |  |  |  | > 100 | > 100 | > 100 | > 100 | > 100 |  | 
30 | CN1CC(=O)N(C)c2nc[nH]c2C1=O | > 100 | > 100 | > 100 | > 100 | > 100 | > 100 | > 100 |  |  | 
31 | O=C(/C=C1/Nc2ccc([N+](=O)[O-])cc2NC1O)c1cccc([N+](=O)[O-])c1 (stereo not given) | > 100 |  | > 100 | > 100 | > 100 | > 100 | > 100 | 96.2 |  | 
32 | CCC(Oc1ccc(OC)c2ccccc(=O)c12)C(=O)O (stereo not given) | > 100 | > 100 |  | > 100 | > 100 |  | > 100 |  |  | 
33 | C=C1[C@@H]([C@@]2(C)C=CC(=O)C(C)(C)[C@@H]2CC(=O)OC)CC[C@@]2(C)C(c3ccoc3)OC(=O)[C@H]3O[C@]132 (stereo not given in full) |  |  |  |  |  |  |  |  | > 100 | 
34 | CN1C(Cl)=NS(=O)(=O)c2ccccc21 |  |  |  |  |  |  |  |  | > 100 | 
35 | COc1cc2c(c(OC3OC(CO)C(O)C(O)C3O)c1)C(=O)CC(c1ccc(O)cc1)O2 (stereo not given) |  |  |  |  |  |  |  |  | > 100 | 
36 | Cc1cccc(Nc2cnc(N)nc2N)c1 |  |  |  |  |  |  |  |  | > 100 | 
37 | O=C1NC(=O)C2C1N(Cc1ccccc1)C(=O)N2Cc1ccccc1 (stereo not given) | > 100 | > 100 | > 100 | > 100 |  | > 100 | > 100 | > 100 |  | 
38 | O=C(NO)c1ccc(O)c(O)c1 | > 100 | > 100 | > 100 | > 100 | 77.8 | > 100 | > 100 | > 100 |  | 
39 | COC(=O)C1=C(c2ccc3c(c2)OCO3)OC(c2cc(OC)c(OC)c(OC)c2)C1 (stereo not given) | > 100 |  | > 100 | > 100 | 58.8 | > 100 | 9.33 |  |  | 
40 | Cc1cccc2nc3cccc(C(=O)NCCN(C)C)c3nc12 | 12 |  |  | 3.25 | 4.17 | 21.8 | 3.13 |  |  | 
41 | CC(Br)C(=O)Nc1ccc(C(=O)O)c(O)c1 (stereo not given) |  |  |  |  |  |  |  |  | > 100 | 
42 | O=C(O)C1=C(C(=O)Nc2ccc(NC(=O)C3=C(C(=O)O)C4C=CC3C4)cc2)C2C=CC1C2 | > 100 |  | > 100 | > 100 | > 100 | > 100 | > 100 | > 100 |  | 
43 | COC(=O)CCC(=O)NC1C2CC3CC(C2)CC1C3 (stereo not given) |  | > 100 | > 100 | > 100 | > 100 | > 100 | > 100 | > 100 |  | 
44 | CC1=CC(=O)N(c2c(C)cccc2Cl)C(C)N1 (stereo not given) | > 100 | > 100 |  | > 100 | > 100 | > 100 | > 100 | > 100 |  | 
